Measured values: ChEMBL document CHEMBL3526061, “Glucuronidation of edaravone by human liver and kidney microsomes: biphasic kinetics and identification of UGT1A9 as the major UDP-glucuronosyltransferase isoform” (Drug Metab Dispos, 2012)

Key:
Type in all cases: ADME
[1] = Drug metabolism in human kidney microsomes assessed as drug glucuronidation in presence of 100 to 1000 uM propofol by LC-MS/MS method
[2] = molecular target: T1, UDP-glucuronosyltransferase 2B15 (Homo sapiens, UniProt P54855); assay: Activity of human recombinant UGT2B15 expressed in insect cells assessed as enzyme mediated glucuronidation at 500 uM by LC-MS/MS method
T1 sequence (P54855 whole entry): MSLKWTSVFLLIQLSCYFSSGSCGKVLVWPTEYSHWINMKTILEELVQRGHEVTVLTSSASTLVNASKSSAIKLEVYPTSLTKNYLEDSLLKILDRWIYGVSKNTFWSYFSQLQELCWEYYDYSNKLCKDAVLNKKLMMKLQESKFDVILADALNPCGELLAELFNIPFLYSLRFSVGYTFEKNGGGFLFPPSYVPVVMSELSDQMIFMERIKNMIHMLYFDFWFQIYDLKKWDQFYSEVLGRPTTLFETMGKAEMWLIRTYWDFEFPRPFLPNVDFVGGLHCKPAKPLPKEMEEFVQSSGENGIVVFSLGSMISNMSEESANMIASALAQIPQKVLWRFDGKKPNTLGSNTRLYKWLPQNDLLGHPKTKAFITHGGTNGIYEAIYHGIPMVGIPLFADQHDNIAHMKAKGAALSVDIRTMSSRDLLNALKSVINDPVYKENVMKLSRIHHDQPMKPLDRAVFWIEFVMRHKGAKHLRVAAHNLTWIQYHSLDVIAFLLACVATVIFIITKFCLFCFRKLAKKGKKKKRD

Liver microsome [3] = assay: Drug metabolism in human liver microsomes assessed as drug glucuronidation in presence of 50 estradiol by LC-MS/MS method
Liver microsome [4] = assay: Drug metabolism in human liver microsomes assessed as drug glucuronidation per mg tissue in presence of BSA by LC-MS/MS method
[5] = molecular target: T2, UDP-glucuronosyltransferase 1A3 (Homo sapiens, UniProt P35503); assay: Activity of human recombinant UGT1A3 expressed in insect cells assessed as enzyme mediated glucuronidation at 500 uM by LC-MS/MS method
T2 sequence (P35503 whole entry): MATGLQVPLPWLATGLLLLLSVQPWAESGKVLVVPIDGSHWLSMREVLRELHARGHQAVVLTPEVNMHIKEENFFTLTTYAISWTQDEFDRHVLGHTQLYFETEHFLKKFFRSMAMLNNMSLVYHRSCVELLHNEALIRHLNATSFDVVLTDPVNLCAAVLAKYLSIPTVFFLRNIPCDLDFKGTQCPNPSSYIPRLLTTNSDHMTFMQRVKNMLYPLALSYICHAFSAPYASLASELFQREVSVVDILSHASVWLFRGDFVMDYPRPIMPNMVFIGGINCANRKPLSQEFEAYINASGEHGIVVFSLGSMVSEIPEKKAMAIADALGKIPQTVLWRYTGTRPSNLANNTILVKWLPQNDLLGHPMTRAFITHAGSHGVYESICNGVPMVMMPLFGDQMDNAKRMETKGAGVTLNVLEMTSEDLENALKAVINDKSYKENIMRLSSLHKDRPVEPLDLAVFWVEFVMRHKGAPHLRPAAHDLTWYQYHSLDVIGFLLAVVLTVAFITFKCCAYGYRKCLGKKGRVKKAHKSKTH

[6] = molecular target: T3, UDP-glucuronosyltransferase 1A1 (Homo sapiens, UniProt P22309); assay: Activity of human recombinant UGT1A1 expressed in insect cells assessed as intrinsic clearance for enzyme mediated glucuronidation per mg protein by LC-MS/MS method
T3 sequence (P22309 whole entry): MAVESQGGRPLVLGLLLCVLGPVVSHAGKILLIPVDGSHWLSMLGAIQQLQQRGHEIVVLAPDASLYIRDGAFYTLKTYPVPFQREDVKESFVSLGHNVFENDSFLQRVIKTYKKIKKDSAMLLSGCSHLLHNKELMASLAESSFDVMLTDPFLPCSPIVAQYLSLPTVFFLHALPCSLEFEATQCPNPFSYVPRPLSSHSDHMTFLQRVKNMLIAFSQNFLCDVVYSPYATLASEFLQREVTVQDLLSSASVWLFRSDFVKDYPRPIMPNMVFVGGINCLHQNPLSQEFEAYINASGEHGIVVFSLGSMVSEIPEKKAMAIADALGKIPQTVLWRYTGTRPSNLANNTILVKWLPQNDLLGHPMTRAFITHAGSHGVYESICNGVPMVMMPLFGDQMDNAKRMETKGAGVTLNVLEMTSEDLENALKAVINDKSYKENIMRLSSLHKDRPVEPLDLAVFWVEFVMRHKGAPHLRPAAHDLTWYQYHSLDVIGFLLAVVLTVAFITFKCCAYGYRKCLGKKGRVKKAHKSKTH

[7] = molecular target: T3, UDP-glucuronosyltransferase 1A1; assay: Activity of human recombinant UGT1A1 expressed in insect cells assessed as enzyme mediated glucuronidation at 500 uM by LC-MS/MS method
[8] = Drug metabolism in human kidney microsomes assessed as drug glucuronidation in presence of […] naloxone by LC-MS/MS method
[9] = molecular target: T4, UDP-glucuronosyltransferase 1A7 (Homo sapiens, UniProt Q9HAW7); assay: Activity of human recombinant UGT1A7 expressed in insect cells assessed as intrinsic clearance for enzyme mediated glucuronidation per mg protein by LC-MS/MS method
T4 sequence (Q9HAW7 whole entry): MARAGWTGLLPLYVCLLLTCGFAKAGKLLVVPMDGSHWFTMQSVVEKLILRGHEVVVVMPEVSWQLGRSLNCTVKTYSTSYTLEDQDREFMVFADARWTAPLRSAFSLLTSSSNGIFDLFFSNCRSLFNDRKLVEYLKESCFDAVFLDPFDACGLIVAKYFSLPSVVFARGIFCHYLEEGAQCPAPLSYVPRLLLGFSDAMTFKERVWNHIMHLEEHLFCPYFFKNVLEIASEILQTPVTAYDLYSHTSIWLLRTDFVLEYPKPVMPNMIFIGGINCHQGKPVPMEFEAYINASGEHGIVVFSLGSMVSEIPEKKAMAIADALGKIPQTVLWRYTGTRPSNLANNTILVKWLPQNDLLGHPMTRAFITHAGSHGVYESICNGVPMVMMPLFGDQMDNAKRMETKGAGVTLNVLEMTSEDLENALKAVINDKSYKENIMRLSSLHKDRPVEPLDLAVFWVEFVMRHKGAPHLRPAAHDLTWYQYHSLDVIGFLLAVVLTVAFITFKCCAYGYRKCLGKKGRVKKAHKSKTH

- Drug metabolism [1]: metabolite_not_detected
- Drug metabolism [2]: metabolite_detected
- Drug metabolism (Liver microsome [3]): metabolite_not_detected
- VmaxH (Liver microsome [4]): 137.9 pmol/min/g
- VmaxL (Liver microsome [4]): 4904 pmol/min/g
- Drug metabolism [5]: metabolite_detected
- CL(high) [6]: 0.2 µL/min/mg
- Drug metabolism [7]: metabolite_detected
- Drug metabolism [8]: metabolite_detected
- CL [9]: 1.7 µL/min/g
SMILES: CC1=NN(c2ccccc2)C(=O)C1 [EDARAVONE]
